Among the data in PubChem BioAssay AID256 (DTP/NCI, 2004) are T/C values, retold here.

Several values for one entry are separate records, joined by “and”; a condition that tells them apart may be missing. Equal values may be shown once. Toxic doses and inconclusive results are not listed.

The test system of this experiment is CD2F1 mice, L1210 leukemia ip, survival T/C. The experiment is described as follows: NCI In Vivo Anticancer Drug Screen. Data for tumor model L1210 Leukemia (intraperitoneal) in CD2F1 (CDF1) mice. Particulars: higher = longer survival. The procedure, abridged: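 Ratio T/C, where T is the treated-group value and C the vehicle-dosed control value, from mice implanted with a transplantable tumor.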

The mark [1] stands for this setting: endpoint: mean survival time, dose: 50.0 mg/kg/injection, schedule: Q01DX009 (ip), vehicle: Klucel (hydroxypropylcellulose) (HPC).
[2] abbreviates: endpoint: mean survival time, dose: 100.0 mg/kg/injection, schedule: Q01DX009 (ip), vehicle: Klucel (hydroxypropylcellulose) (HPC).
The mark [3] stands for this setting: endpoint: mean survival time, dose: 100.0 mg/kg/injection, schedule: Q04DX003 (ip), vehicle: saline with Tween-80.
Setting [4] is: endpoint: mean survival time, dose: 200.0 mg/kg/injection, schedule: Q04DX003 (ip), vehicle: saline with Tween-80.
Setting [5] is: endpoint: mean survival time, dose: 400.0 mg/kg/injection, schedule: Q04DX003 (ip), vehicle: saline with Tween-80.
[6] abbreviates: endpoint: mean survival time, dose: 200.0 mg/kg/injection, schedule: Q01DX009 (ip), vehicle: Klucel (hydroxypropylcellulose) (HPC).
The mark [7] stands for this setting: endpoint: mean survival time, dose: 400.0 mg/kg/injection, schedule: Q01DX009 (ip), vehicle: Klucel (hydroxypropylcellulose) (HPC).
The mark [8] stands for this setting: endpoint: mean survival time, dose: 25.0 mg/kg/injection, schedule: Q01DX009 (ip), vehicle: saline.
Setting [9] is: endpoint: mean survival time, dose: 50.0 mg/kg/injection, schedule: Q01DX009 (ip), vehicle: saline.
Setting [10] is: endpoint: mean survival time, dose: 100.0 mg/kg/injection, schedule: Q01DX009 (ip), vehicle: saline.

Turning to `Cc1ccc(C(C)(C)C[P+](C)(c2ccccc2)c2ccccc2)cc1`, the T/C by setting is: under setting [1], 100 % of control; under setting [2], 102 % of control.

Regarding `O=C(O)COc1ccc(Cl)cc1Cl`, the T/C was 95 % of control (endpoint: mean survival time, dose: 100.0 mg/kg/injection, schedule: Q04DX003 (ip), vehicle: saline sonified); 92 % of control (endpoint: mean survival time, dose: 200.0 mg/kg/injection, schedule: Q04DX003 (ip), vehicle: saline sonified); 95 % of control (endpoint: mean survival time, dose: 400.0 mg/kg/injection, schedule: Q04DX003 (ip), vehicle: saline sonified).

Consider `O=C(c1ccccc1)C(C(c1ccc([N+](=O)[O-])cc1)N1CCOCC1)N1CCOCC1` (stereo not given), for which the T/C is, setting by setting: (endpoint: mean survival time, dose: 100.0 mg/kg/injection, schedule: Q01DX009 (ip), vehicle: saline with Tween-80) 97 % of control; under setting [3], 101 % of control; (endpoint: mean survival time, dose: 200.0 mg/kg/injection, schedule: Q01DX009 (ip), vehicle: saline with Tween-80) 96 % of control; under setting [4], 101 % of control; (endpoint: mean survival time, dose: 400.0 mg/kg/injection, schedule: Q01DX009 (ip), vehicle: saline with Tween-80) 96 % of control; under setting [5], 108 % of control.

Consider `CC(CO)(CO)N(CCO)CCO`, for which the T/C was 94 % of control under setting [3], 100 % of control under setting [4] and 92 % of control under setting [5].

As for `CCCCCCCCNCCNCCCCCCCC`, the T/C was 95 % of control (endpoint: mean survival time, dose: 3.75 mg/kg/injection, schedule: Q01DX009 (ip), vehicle: Klucel (hydroxypropylcellulose) (HPC)); 95 % of control (endpoint: mean survival time, dose: 7.5 mg/kg/injection, schedule: Q01DX009 (ip), vehicle: Klucel (hydroxypropylcellulose) (HPC)); 87 % of control (endpoint: mean survival time, dose: 15.0 mg/kg/injection, schedule: Q01DX009 (ip), vehicle: Klucel (hydroxypropylcellulose) (HPC)).

For `Nc1c(O)cc(S(=O)(=O)O)c2ccccc12`, the T/C was 95 % of control (endpoint: mean survival time, dose: 25.0 mg/kg/injection, schedule: Q04DX003 (ip), vehicle: saline); 103 % of control (endpoint: mean survival time, dose: 50.0 mg/kg/injection, schedule: Q04DX003 (ip), vehicle: saline); 109 % of control (endpoint: mean survival time, dose: 100.0 mg/kg/injection, schedule: Q04DX003 (ip), vehicle: saline).

In the case of `O=C1C=C[C@H](O)[C@@]2(CO)O[C@@H]12`, the T/C runs as follows: (endpoint: median survival time, dose: 0.31 mg/kg/injection, schedule: Q01DX009 (ip), vehicle: saline with Tween-80) 102 % of control; (endpoint: median survival time, dose: 0.62 mg/kg/injection, schedule: Q01DX009 (ip), vehicle: saline with Tween-80) 101 % of control; (endpoint: median survival time, dose: 1.25 mg/kg/injection, schedule: Q01DX009 (ip), vehicle: saline with Tween-80) 118 % of control and 110 % of control; (endpoint: median survival time, dose: 2.5 mg/kg/injection, schedule: Q01DX009 (ip), vehicle: saline with Tween-80) 121 % of control and 123 % of control; (endpoint: median survival time, dose: 5.0 mg/kg/injection, schedule: Q01DX009 (ip), vehicle: saline with Tween-80) 114 % of control; (endpoint: median survival time, dose: 10.0 mg/kg/injection, schedule: Q01DX009 (ip), vehicle: saline with Tween-80) 118 % of control.

With `N#CCc1nc2ccccc2[nH]1`, the T/C by setting is: (endpoint: mean survival time, dose: 25.0 mg/kg/injection, schedule: Q01DX009 (ip), vehicle: Klucel (hydroxypropylcellulose) (HPC)) 98 % of control; under setting [1], 93 % of control.

As for `CCOC1(C(C)C)CCC(C)/C(=C\c2ccc([N+](=O)[O-])cc2)C1=O` (stereo not given), the T/C was 93 % of control under setting [3], 93 % of control under setting [4] and 96 % of control under setting [5].

For `CN(/N=C/c1ccccc1)C(=S)Nc1ccccc1`, the T/C is 101 % of control (endpoint: mean survival time, dose: 31.25 mg/kg/injection, schedule: Q04DX003 (ip), vehicle: Klucel (hydroxypropylcellulose) (HPC)); 103 % of control (endpoint: mean survival time, dose: 62.5 mg/kg/injection, schedule: Q04DX003 (ip), vehicle: Klucel (hydroxypropylcellulose) (HPC)); 100 % of control (endpoint: mean survival time, dose: 125.0 mg/kg/injection, schedule: Q04DX003 (ip), vehicle: Klucel (hydroxypropylcellulose) (HPC)).

As for `CC(C)(C)CC(C)(C)c1ccc(OCCOc2ccc(NS(=O)(=O)c3ccc(N)cc3)cc2)cc1`, the T/C is, setting by setting: under setting [2], 95 % of control; under setting [3], 97 % of control; under setting [6], 96 % of control; under setting [4], 97 % of control; under setting [7], 93 % of control; under setting [5], 95 % of control.

For the molecule `CCOC(=O)CCC(NC(=O)C(CSC(c1ccccc1)(c1ccccc1)c1ccccc1)NC(c1ccccc1)(c1ccccc1)c1ccccc1)C(=O)OCC` (stereo not given), the T/C is 93 % of control under setting [8]; 100 % of control under setting [9]; 96 % of control under setting [10]; 96 % of control (endpoint: mean survival time, dose: 200.0 mg/kg/injection, schedule: Q01DX009 (ip), vehicle: saline); 96 % of control (endpoint: mean survival time, dose: 400.0 mg/kg/injection, schedule: Q01DX009 (ip), vehicle: saline).

Turning to `N/C(=N\O)c1cn(C2OC(CO)C(O)C2O)c2ncncc12` (stereo not given), the T/C was 159 % of control under setting [8], 168 % of control under setting [9] and 102 % of control under setting [10].

For the molecule `COC1OC(COC(c2ccccc2)(c2ccccc2)c2ccccc2)C(OC(C)=O)C1OC(C)=O` (stereo not given), the T/C is 109 % of control (endpoint: mean survival time, dose: 100.0 mg/kg/injection, schedule: Q04DX003 (ip), vehicle: Klucel (hydroxypropylcellulose) (HPC)); 89 % of control (endpoint: mean survival time, dose: 200.0 mg/kg/injection, schedule: Q04DX003 (ip), vehicle: Klucel (hydroxypropylcellulose) (HPC)); 89 % of control (endpoint: mean survival time, dose: 400.0 mg/kg/injection, schedule: Q04DX003 (ip), vehicle: Klucel (hydroxypropylcellulose) (HPC)).

As for `N#Cc1c(NC(=S)NC2OC(COCc3ccccc3)C(OCc3ccccc3)C2OCc2ccccc2)ncn1Cc1ccccc1` (stereo not given), the T/C reads like this: (endpoint: mean survival time, dose: 50.0 mg/kg/injection, schedule: Q01DX009 (ip), vehicle: acetone) 94 % of control; (endpoint: mean survival time, dose: 100.0 mg/kg/injection, schedule: Q01DX009 (ip), vehicle: acetone) 98 % of control; (endpoint: mean survival time, dose: 100.0 mg/kg/injection, schedule: Q04DX003 (ip), vehicle: acetone) 91 % of control; (endpoint: mean survival time, dose: 200.0 mg/kg/injection, schedule: Q01DX009 (ip), vehicle: acetone) 93 % of control; (endpoint: mean survival time, dose: 200.0 mg/kg/injection, schedule: Q04DX003 (ip), vehicle: acetone) 91 % of control.

`CCCCCCCCCCCCCCOc1ccc(C(=O)O)cc1`: the T/C by setting is: under setting [2], 93 % of control; under setting [3], 91 % of control; under setting [6], 93 % of control; under setting [4], 90 % of control; under setting [7], 93 % of control; under setting [5], 88 % of control.

On to `CC(C)CCNC(=O)CI`, for which the T/C is, setting by setting: (endpoint: mean survival time, dose: 100.0 mg/kg/injection, schedule: Q01DX001 (ip), vehicle: saline) 101 % of control; (endpoint: mean survival time, dose: 200.0 mg/kg/injection, schedule: Q01DX001 (ip), vehicle: saline) 95 % of control.

In the case of `C=CCOC(=O)CCN1CC1`, the T/C runs as follows: (endpoint: mean survival time, dose: 0.5 mg/kg/injection, schedule: Q01DX009 (ip), vehicle: saline with Tween-80) 106 % of control; (endpoint: mean survival time, dose: 1.0 mg/kg/injection, schedule: Q01DX009 (ip), vehicle: saline with Tween-80) 103 % of control; (endpoint: mean survival time, dose: 2.0 mg/kg/injection, schedule: Q01DX009 (ip), vehicle: saline with Tween-80) 103 % of control.

`CCCCCCCCCCCCCCCCOc1ccc(S(=O)(=O)N(C)C)cc1[N+](=O)[O-]`: the T/C reads like this: under setting [3], 90 % of control; under setting [4], 96 % of control; under setting [5], 90 % of control.

In the case of `C#CC[N+](CC)(CC)CCNC(=O)CCCCCCCCCCCCCCC`, the T/C (endpoint: mean survival time, dose: 75.0 mg/kg/injection, schedule: Q01DX001 (ip), vehicle: saline) is 102 % of control.

On to `S=c1nc(-c2ccncc2)[nH][nH]1`, for which the T/C by setting is: (endpoint: mean survival time, dose: 25.0 mg/kg/injection, schedule: Q01DX009 (ip), vehicle: saline sonified) 107 % of control; (endpoint: mean survival time, dose: 50.0 mg/kg/injection, schedule: Q01DX009 (ip), vehicle: saline sonified) 98 % of control; (endpoint: mean survival time, dose: 100.0 mg/kg/injection, schedule: Q01DX009 (ip), vehicle: saline sonified) 107 % of control; under setting [3], 100 % of control.
